Experimental data taken from publication PMC2990756, “Quantitative High-Throughput Screening Identifies 8-Hydroxyquinolines as Cell-Active Histone Demethylase Inhibitors” (PLoS ONE, 2010).
Read-outs that look alike come from different tables or passages of the source.

Tests used:
Format in all cases: biochemical
[1] = target: T1, JMJD2E (KDM4E) (Homo sapiens, UniProt B2RXH2); assay: qHTS fluorescence FDH-coupled JMJD2E demethylase assay
T1 construct: The catalytic domain of human JMJD2E (residues 1–337); His6 (N); made in house; host or cells: E. coli
T1 sequence (B2RXH2 1-337): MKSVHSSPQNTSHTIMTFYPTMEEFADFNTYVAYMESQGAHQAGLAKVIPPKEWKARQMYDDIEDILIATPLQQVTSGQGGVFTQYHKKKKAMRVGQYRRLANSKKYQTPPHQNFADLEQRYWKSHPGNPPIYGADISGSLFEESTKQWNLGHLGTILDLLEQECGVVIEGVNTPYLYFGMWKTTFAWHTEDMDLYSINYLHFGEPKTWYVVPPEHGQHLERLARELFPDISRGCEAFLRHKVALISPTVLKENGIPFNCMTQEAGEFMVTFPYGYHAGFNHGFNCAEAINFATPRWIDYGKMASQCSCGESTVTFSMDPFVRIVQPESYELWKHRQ
Text: The oxidation of formaldehyde is coupled to the reduction of NAD^+ to NADH, which is monitored by fluorescence spectroscopy. […] To this end, initial screening hits were filtered by a combination of cheminformatics (to exclude low-confidence inhibitors and autofluorescent false positives), counterscreening against the coupled-assay component formaldehyde dehydrogenase (FDH), and orthogonal direct detection of inhibition of demethylation by mass spectrometry ( Figure 1 ).
Reactions were initiated with 1 µL addition of peptide substrate solution containing final concentrations of 10 µM FAS, 50 µM 2OG, 0.25 U/mL FDH, 0.25 mM NAD^+, and 50 µM peptide substrate (ARK(me3)STGGK). A ViewLux imager (PerkinElmer, Waltham, MA) was used to measure NADH fluorescence (λex 340 nm, λem 450 nm) immediately after substrate addition and following 30 min incubation at room temperature. To record any systematic drifts in assay behavior (signal window and noise), assay plates containing no library compounds but only DMSO as a vehicle control were tested periodically (every ∼60 plates) throughout the screen.
Data were normalized to the basal response (0% activity) in the absence of enzyme and the maximal response (100% activity) in the absence of compound. Using the Hill equation, dose-response curves and IC50 values were automatically generated for each compound tested with software developed internally (www.ncgc.nih.gov/pub/openhts/curvefit/). […] The initial well fluorescence (first kinetic read) associated with each sample was stored in a database and used in the cheminformatics analysis to identify autofluorescent compounds interfering with the assay signal.

[2] = target: T2, JMJD2E (Homo sapiens, UniProt B2RXH2); assay: JMJD2E FDH-coupled assay under low and high iron conditions (iron chelation profile); set-up: The catalytic domain of human JMJD2E (residues 1–337); His6 (N); made in house; host or cells: E. coli; details: Table S1; for IC50: unit not in table, from Figure 2
T2 sequence (B2RXH2 1-337): T1 sequence (B2RXH2 1-337)
Experimental: The prioritized compounds were also evaluated in the screening assay using two different ferrous ion concentrations (termed high iron and low iron, respectively), in order to assess their propensity for iron chelation.
The ratio of IC50 values under high iron to low iron was calculated for each compound.

[3] = target: T3, formaldehyde dehydrogenase (FDH) (Pseudomonas putida, UniProt P46154); assay: FDH coupling enzyme counterscreen; details: Table S1, FDH counterscreen; for IC50: unit not in table, from Figure 2, read-out: qHTS Data: jmjd2e fdh IC50
T3 construct: purchased Sigma-Aldrich
Text: Dimethylsulfoxide certified ACS grade (DMSO) was from Fisher, Inc. HEPES buffer was obtained from Gibco. […] Black solid-bottom 1,536-well assay plates were from Greiner Bio-One (Monroe, NC).

[4] = Figure 3, substituted 8-hydroxyquinolines against JMJD2E, read-out: IC50 /μM (qHTS IC50, FDH-coupled assay)
[5] = high iron, head says 20 µM FAS, read-out: qHTS Data: jmjd2e fas20um IC50
[6] = low iron 2.5 µM FAS, read-out: qHTS Data: jmjd2e fas2.5um IC50
[7] = Table S1, unit not in table, from Figure 2, read-out: qHTS Data: jmjd2e IC50

T3 sequence (P46154 whole entry): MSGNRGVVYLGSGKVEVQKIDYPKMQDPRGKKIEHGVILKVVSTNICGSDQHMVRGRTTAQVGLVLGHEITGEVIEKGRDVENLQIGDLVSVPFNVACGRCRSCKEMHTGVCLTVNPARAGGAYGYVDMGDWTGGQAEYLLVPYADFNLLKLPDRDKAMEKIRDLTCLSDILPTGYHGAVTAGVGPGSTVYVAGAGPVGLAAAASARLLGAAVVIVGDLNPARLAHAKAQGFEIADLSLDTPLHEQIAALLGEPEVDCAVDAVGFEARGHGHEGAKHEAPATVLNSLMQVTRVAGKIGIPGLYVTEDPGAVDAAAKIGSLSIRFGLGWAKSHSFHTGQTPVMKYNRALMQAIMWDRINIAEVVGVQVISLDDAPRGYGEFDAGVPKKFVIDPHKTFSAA

SMILES	IC50 [2, 5] [µM]	IC50 [2, 6] [µM]	IC50 [1, 7] [µM]	qHTS Data: jmjd2e fdh CurveClass [3]	IC50 [3] [µM]	also measured
O=C(O)c1ccnc2c(O)cccc12 [SID 85736397, 4-carboxy-8-hydroxyquinoline]						IC50 ([1]; FDH coupled assay, read-out: IC50 against JMJD2E): 2 µM; IC50 [1, 4]: 2.0 µM
CN(C)[C@H]1C(=O)C(C(=O)NCN[C@@H](CCCCN)C(=O)O)=C(O)[C@]2(O)C(=O)C3=C(O)c4c(O)cccc4[C@@](C)(O)[C@H]3C[C@@H]12 [compound 11112463]	15.8	14.1	8.91	Inactive		
Cc1cc2c(C(C)C)c(O)c(O)c(C=O)c2c(O)c1-c1c(C)cc2c(C(C)C)c(O)c(O)c(C=O)c2c1O [compound 11112318]	15.8	1.12	7.94		31.6	
C=C1c2cccc(O)c2C(O)=C2C(=O)[C@]3(O)C(O)=C(C(N)=O)C(=O)C(N(C)C)C3C(O)C12.Cl (some centres unmarked) [compound 26748477]	2.51	12.6	8.91	Inactive		qHTS Data: jmjd2e fas20um CurveClass ([2]; high iron): Poor quality curve
CN(C)C1C(=O)C(C(N)=O)=C(O)[C@@]2(O)C(=O)C3=C(O)c4c(O)cccc4[C@@](C)(O)C3CC12.Cl (some centres unmarked) [compound 26748266]	1.78	15.8	2.51	Poor quality curve	15.8	
O=Cc1ccc(O)c2ncccc12 [compound 26664581]	56.2	7.08	3.16	Inactive		qHTS Data: jmjd2e fas20um CurveClass ([2]; high iron): Poor quality curve; IC50 [1, 4]: 3.2 µM
O=C(NC(=S)NNC(=O)c1ccccc1O)c1ccco1 [compound 17504924]		3.55	7.08	Poor quality curve	2.82	qHTS Data: jmjd2e fas20um CurveClass ([2]; high iron): Inactive
O=C(NO)c1ccccc1O [compound 855524]		12.6	10	Poor quality curve	3.55	qHTS Data: jmjd2e fas20um CurveClass ([2]; high iron): Inactive
CNC[C@H](O)c1ccc(O)c(O)c1 [compound 26754418]	12.6	5.01	7.08	Inconclusive		
CCc1ccc2c(O)c3c(cc2c1C(=O)OC)C(=O)c1c(O)ccc(O)c1C3=O [compound 26749155]	11.2	3.98	2.82	Poor quality curve	3.16	
NC(=O)c1ccc(-n2nnnc2SCC(=O)c2ccc(O)c(O)c2)cc1 [compound 24821381]		7.94	0.71	Inactive		qHTS Data: jmjd2e fas20um CurveClass ([2]; high iron): Inactive
Oc1cccc2ccc(/C=C/c3cccs3)nc12 [compound 14734630]						IC50 [1, 4]: > 39 µM
O=c1c(O)c(-c2ccc(O)c(O)c2)oc2c(O)c(O)cc(O)c12 [compound 26750048]		1.41	2.82	Inactive		qHTS Data: jmjd2e fas20um CurveClass ([2]; high iron): Inactive
CC(C)c1ccccc1NC(=O)CNCCc1ccc(C(F)(F)F)cc1.O=C(O)C(=O)O [compound 26661422]		28.2	3.16	Inactive		qHTS Data: jmjd2e fas20um CurveClass ([2]; high iron): Inactive
O=c1cc2c(=O)oc3cc(O)c(O)oc3c2c(O)c1O [compound 26666750]	15.8	1.78	3.98	Inactive		
O=C(OC1Cc2c(O)cc(O)cc2OC1c1cc(O)c(O)c(O)c1)c1cc(O)c(O)c(O)c1 (centres unmarked) [compound 26749738]	7.08	1.41	2.51	Poor quality curve	14.1	
O=c1cnnc(N/N=C/c2ccccn2)[nH]1 [compound 26726276]		6.31	3.55	Inactive		qHTS Data: jmjd2e fas20um CurveClass ([2]; high iron): Inactive
Cc1ccc(N2C(=O)CC(Sc3ncn[nH]3)C2=O)cc1 (centres unmarked) [compound 14726735]	31.6	2	2.51		0.32	qHTS Data: jmjd2e fas20um CurveClass ([2]; high iron): Poor quality curve
O=C(O)c1cc(O)c(O)c(O)c1 [compound 26747307]	17.8	0.13	0.35	Poor quality curve	31.6	
O=Cc1ccc(O)c(O)c1 [compound 8139931]		3.55	4.47	Inactive		qHTS Data: jmjd2e fas20um CurveClass ([2]; high iron): Inactive
N[C@H](Cc1ccc(O)c(O)c1)C(=O)O [compound 50106235]	12.6	12.6	17.8	Inactive		
COc1ccc(-n2c(C)cc(/C=N/Nc3nnc(C)n3N)c2C)cc1.Cl [compound 22416865]	5.01	5.01	0.71	Poor quality curve	28.2	
CC1=CC(=O)c2c(O)cccc2C1=O [compound 26747815]	12.6	2.24	8.91	Poor quality curve	17.8	
COc1ccc(N2C(=O)CC(Sc3ncn[nH]3)C2=O)c(OC)c1 (centres unmarked) [compound 7974422]	35.5	1.41	2.82		0.32	qHTS Data: jmjd2e fas20um CurveClass ([2]; high iron): Poor quality curve

SMILES	IC50 [2, 5] [µM]	IC50 [2, 6] [µM]	IC50 [1, 7] [µM]	qHTS Data: jmjd2e fdh CurveClass [3]	IC50 [3] [µM]	also measured
Oc1ccc(NCc2cccc(OCc3ccccc3)c2)cc1 [compound 24795995]	35.5	14.1	4.47	Inactive		
Cc1ccc2ccc(C(Nc3ccccn3)c3ccccc3)c(O)c2n1 (centres unmarked) [compound 14737227]			39.8			
Oc1ccc(CNc2cccc(C(F)(F)F)c2)c2cccnc12 [compound 50122416]						IC50 [1, 4]: 7.9 µM
OCc1ccnc2c(O)cccc12 [compound 857270]						IC50 [1, 4]: 8.9 µM
Oc1c(CN2CCCC2)cc(COCc2ccccc2)c2cccnc12 [compound 85736312]						IC50 [1, 4]: 5 µM
Oc1cccc2ccc(/C=C/c3c(F)cccc3Cl)nc12 [compound 24793399]						IC50 [1, 4]: 28 µM
COc1ccccc1NC(=O)c1sc2ncn(Cc3ccccc3C)c(=O)c2c1C [SID 17408386]						IC50 ([1]; Figure 2, 100 nM JMJD2E, 10 µM FAS, read-out: IC50 values in μM, qHTS): 4.5 µM
Oc1ccc(COCc2ccccc2)c2cccnc12 [compound 848472]						IC50 [1, 4]: 36 µM
Oc1cc(O)c2c(c1)OC(c1cc(O)c(O)c(O)c1)C(O)C2 (centres unmarked) [compound 26749553]	3.16	2.82	1.41			qHTS Data: jmjd2e fas20um CurveClass ([2]; high iron): Poor quality curve
CCCCn1c(=O)[nH]c2nc3cc(NC(C)=O)ccc3nc2c1=O [compound 26671554]					11.2	
COc1cccc(CN2CCN(C(=O)c3ccc(-c4ccccc4)cc3)CC2)c1OC.O=C(O)C(=O)O [compound 24807835]				Inactive		
CCC(=O)c1ccccc1OCCN1CCN(Cc2ccccc2)CC1.O=C(O)C(=O)O [compound 24782649]				Inactive		
O=C(O)C(=O)O.c1cc(CN2CCN(C3CCCCCC3)CC2)ccn1 [compound 24817627]				Inactive		
COCCN1C=C2C(=O)C(C)(OC(=O)CCc3ccccc3)C(=O)C=C2C=C1c1ccc(C#N)cc1 (centres unmarked) [compound 26725518]				Poor quality curve		
Clc1ccc(SCCN2CCNCC2)cc1.O=C(O)C(=O)O [compound 24783981]				Inactive		
O=C(Nc1ccccc1C(F)(F)F)c1ncn[nH]1 [compound 24822488]				Poor quality curve	22.4	
O=C(CN1CCCCCC1)NCC1CCCO1.O=C(O)C(=O)O (centres unmarked) [compound 24790169]				Inactive		
O=C(CC1Sc2ncnn2C1=O)Nc1ccccc1 (centres unmarked) [compound 14735867]					0.28	
CC1(OC(=O)C2CCCC2)C(=O)C=C2C=C(c3ccsc3)N(CCc3ccccn3)C=C2C1=O (centres unmarked) [compound 26725362]				Inactive		
CCNc1nc(C(=O)O)nc(N2CCOCC2)n1 [compound 24789924]				Inactive		
O=c1cc(O)c2sc(Nc3ccc(F)cc3)nc2[nH]1 [compound 17505973]				Inactive		
Cc1ccc(SCCCCN2CCNCC2)cc1.O=C(O)C(=O)O [compound 17504558]				Inactive		
CCOc1ccc2ccccc2c1/C=N/NC(=O)CNC(=O)C(c1ccccc1)c1ccccc1 [compound 17512004]					10	
